From patent publication US9809598B2 (Merck Patent GmbH, priority 2014, dated 2017)
Counter-ions that a name gives are not always drawn. Like-named read-outs stand apart in the source and are kept apart here.

What was measured:
TNKS1 = biological target: T1, TNKS1 (Homo sapiens, UniProt O95271); test: TNKS1 activity ELISA (autoparsylation assay); format: biochemical; conditions: GST-tagged Tnks-1 (1023-1327 aa)
T1 construct: GST-tagged Tnks-1 (1023-1327 aa, prepared in-house); made in house
Description: (§1) Description of the TNKS1 and TNKS2 ELISA Assay
(§2) Biochemical Activity Testing of TNKS 1 and 2: Activity ELISA (Autoparsylation Assay)
(§3) For analysis of autoparsylation activity of TNKS 1 and 2 an activity ELISA iss performed: In the first step GST tagged TNKS is captured on a Glutathione coated plate. Then the activity assay with biotinylated NAD is performed in the absence/presence of the compounds. During the enzymatic reaction GST tagged TNKS transfers biotinylated ADP-ribose to itself from biotinylated NAD as co-substrate. For the detection streptavidin-HRP conjugate is added that binds to the biotinylated TNKS and is thereby captured to the plates. The amount of biotinylated resp. autoparsylated TNKS is detected with a luminescence substrate for HRP. The level of the luminescence signal correlats directly with the amount of autoparsylated TNKS and therefore with activity of TNKS.
(§4) The activity ELISA is performed in 384 well Glutathione coated microtiter plates (Express capture Glutathione coated plate, Biocat, Heidelberg, Germany). The plates are pre-equilibrated with PBS. […] The plates are washed 3 times with PBS-Tween-20. The wells are blocked by incubation at room temperature for 20 minutes with 50 μl blocking buffer (PBS, 0.05% Tween-20, 0.5% BSA). Afterwards the plates are washed 3 times with PBS-Tween-20. […] The reaction is stopped by 3 times washing with PBS-Tween-20. For the detection 50 μl of 20 ng/μl Streptavidin, HRP conjugate (MoBiTec, Göttingen, Germany) in PBS/0.05% Tween-20/0.01% BSA are added and the plates are incubated for 30 minutes at room temperature. After three times washing with PBS-Tween-20 50 μl of SuperSignal ELISA Femto Maximum sensitivity substrate solution (ThermoFisherScientific (Pierce), Bonn, Germany) are added. Following a 1 minute incubation at room temperature luminescence signals are measured with an Envision multimode reader (Perkin Elmer LAS Germany GmbH) at 700 nm. The full value used is the inhibitor-free reaction. […] The inhibitory values (IC50) are determined using either the program Symyx Assay Explorer® or Condosseo® from GeneData.

Tankyrases = conditions: read-out: EC50 [M] TNKS cellular assay; DLD1 cells, 24 hours, Axin2 increase
Description: Measurement of Cellular Inhibition of Tankyrase
Cells of the colon carcinoma cell line DLD1 are plated in 96 well plates with 1.5×10^4 cells per well. Next day, cells are treated with a serial dilution of test compound in seven steps as triplicates with a final DMSO concentration of 0.3%. […] The amount of isolated Axin2 protein is determined in a Luminex^200 machine (Luminex Corporation) according to the manufacturer's instruction by counting 100 events per well. […] As controls cells are treated with solvent alone (neutral control) and with a Tankyrase reference inhibitor IWR-2 (3E−06 M) which refers as control for maximum increase of Axin2. For analysis, the obtained data are normalized against the untreated solvent control and fitted for determination of the EC50 values using the Assay Explorer software (Accelrys).

TNKS2 = biological target: T2, TNKS2 (Homo sapiens, UniProt Q9H2K2); test: TNKS2 activity ELISA (autoparsylation assay); format: biochemical
T2 construct: GST-tagged Tnks-2 (873-1166 aa, prepared in-house); made in house
T2 sequence (Q9H2K2 873-1166): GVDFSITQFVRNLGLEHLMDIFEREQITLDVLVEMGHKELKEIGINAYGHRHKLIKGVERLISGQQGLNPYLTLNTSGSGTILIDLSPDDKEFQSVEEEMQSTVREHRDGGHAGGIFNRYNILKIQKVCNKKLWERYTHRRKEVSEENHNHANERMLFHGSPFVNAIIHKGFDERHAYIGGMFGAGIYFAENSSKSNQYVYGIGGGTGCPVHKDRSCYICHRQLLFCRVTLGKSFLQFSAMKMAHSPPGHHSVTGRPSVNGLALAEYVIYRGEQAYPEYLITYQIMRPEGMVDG
Description: as §1, §2, §3, §4

PARP-1 = biological target: T3, PARP-1 (Homo sapiens, UniProt P09874); test: PARP-1 autoparsylation assay (HTRF); format: biochemical; conditions: His-tagged Parp-1, autoparsylation HTRF
T3 construct: purchased Enzo Life Sciences GmbH, Lörrach, Germany
T3 sequence (P09874 whole entry): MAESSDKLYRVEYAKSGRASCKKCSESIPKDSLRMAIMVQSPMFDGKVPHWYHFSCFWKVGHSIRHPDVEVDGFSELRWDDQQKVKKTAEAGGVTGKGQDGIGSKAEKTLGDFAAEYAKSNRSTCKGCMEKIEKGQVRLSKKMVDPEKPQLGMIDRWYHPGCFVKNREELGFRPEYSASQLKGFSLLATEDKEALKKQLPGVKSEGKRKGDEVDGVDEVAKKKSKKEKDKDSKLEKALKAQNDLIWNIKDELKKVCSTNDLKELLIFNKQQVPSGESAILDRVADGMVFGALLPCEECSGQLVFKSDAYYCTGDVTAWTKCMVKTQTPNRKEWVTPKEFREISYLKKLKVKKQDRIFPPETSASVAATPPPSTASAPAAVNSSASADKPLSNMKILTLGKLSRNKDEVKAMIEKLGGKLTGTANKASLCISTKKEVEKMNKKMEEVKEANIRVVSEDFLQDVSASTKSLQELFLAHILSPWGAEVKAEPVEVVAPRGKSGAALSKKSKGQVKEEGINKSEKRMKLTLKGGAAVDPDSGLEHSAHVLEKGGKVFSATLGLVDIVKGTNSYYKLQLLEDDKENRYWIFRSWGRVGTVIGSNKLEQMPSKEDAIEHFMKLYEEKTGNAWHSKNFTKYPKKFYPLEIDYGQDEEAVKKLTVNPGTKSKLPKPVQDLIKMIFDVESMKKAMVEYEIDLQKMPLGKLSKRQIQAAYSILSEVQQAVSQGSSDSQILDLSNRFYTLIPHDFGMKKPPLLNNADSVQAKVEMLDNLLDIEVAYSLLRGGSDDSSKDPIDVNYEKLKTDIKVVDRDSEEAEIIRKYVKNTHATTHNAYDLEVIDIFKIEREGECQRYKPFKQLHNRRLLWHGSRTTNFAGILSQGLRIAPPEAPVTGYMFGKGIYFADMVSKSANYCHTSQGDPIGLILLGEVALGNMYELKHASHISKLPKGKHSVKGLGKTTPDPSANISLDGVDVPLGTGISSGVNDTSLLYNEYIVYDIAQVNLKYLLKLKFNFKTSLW
Text: Description of the PARP1 Assay
Biochemical Activity Testing of PARP-1: Autoparsylation Assay
The autoparsylation assay is run in two steps: the enzymatic reaction in which His-tagged Parp-1 transfers biotinylated ADP-ribose/ADP-ribose to itself from biotinylated NAD/NAD as co-substrate and the detection reaction where a time resolved FRET between cryptate labelled anti-His antibody bound to the His tag of the enzyme and Xlent® labelled-streptavidin bound the biotin-parsylation residue is analysed. The autoparsylation activity is detectable directly via the increase in HTRF signal.
The autoparsylation assay is performed as 384-well HTRF® (Cisbio, Codolet, France) assay format in Greiner low volume nb 384-well microtiter plates. […] The ratio of the emission signals is determined. The full value used is the inhibitor-free reaction. The pharmacological zero value used is Olaparib (LClabs, Woburn, US) in a final concentration of 1 μM. The inhibitory values (IC50) are determined using either the program Symyx Assay Explorer® or Condosseo® from GeneData.

[1] = GST-tagged Tnks-2 (873-1166 aa), read-out: IC50 [M] TNKS2 ELISA

T1 sequence (O95271 1023-1327): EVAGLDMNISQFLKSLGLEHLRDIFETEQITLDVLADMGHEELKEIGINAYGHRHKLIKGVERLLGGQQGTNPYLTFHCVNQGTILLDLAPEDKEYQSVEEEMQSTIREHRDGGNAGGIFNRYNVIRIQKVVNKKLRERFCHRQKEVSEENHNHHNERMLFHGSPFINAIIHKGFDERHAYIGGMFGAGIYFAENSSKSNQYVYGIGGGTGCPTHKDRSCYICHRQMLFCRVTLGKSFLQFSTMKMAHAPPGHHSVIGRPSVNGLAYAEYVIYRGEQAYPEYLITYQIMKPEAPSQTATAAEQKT

SMILES | IC50 (TNKS1) | EC50 (Tankyrases) | IC50 (TNKS2; [1]) | IC50 (PARP-1) | IC50 (TNKS2)
COc1ccc(C(=O)C2CN(C(=O)CCCc3cn4cccc4c(=O)[nH]3)C2)cc1 [Compound D1, 3-{4-[3-(4-Methoxy-benzoyl)-azetidin-1-yl]-4-oxo-butyl}-2H-pyrrolo[1,2-a]pyrazin-1-one] | 120 nM | 5.4e-07 M | 8.5e-08 M | 3100 nM | 
COc1ccc(C(=O)C2CCN(C(=O)CCCc3cn4cccc4c(=O)[nH]3)CC2)cn1 [Compound C15, 3-{4-[4-(6-Methoxy-pyridine-3-carbonyl)-piperidin-1-yl]-4-oxo-butyl}-2H-pyrrolo[1,2-a]pyrazin-1-one] | 0.23 nM | 1.5e-09 M | 1.7e-10 M | 1700 nM | 
Cn1ncc2c(=O)[nH]c(CCCC(=O)N3CCC(c4nnc(-c5ccccc5)o4)CC3)nc21 [Compound C46, 1-Methyl-6-{4-oxo-4[4-(5-phenyl-[1,3,4]oxadiazol-2-yl)-piperidin-1-yl]-butyl}-1,5-dihydro-pyrazolo[3,4-d]pyrimidin-4-one] | 2.9 nM | 6.6e-08 M | 2.4e-09 M | 7200 nM | 
Cc1csc2c(=O)[nH]c(CCCC(=O)N3CCC(c4cnc(N)c(-c5ncccn5)c4)CC3)nc12 [Compound C128, 2-{4-[4-(6-Amino-5-pyrimidin-2-yl-3-pyridyl)-1-piperidyl]-4-oxo-butyl}-7-methyl-3H-thieno[3,2-d]pyrimidin-4-one] | 0.11 nM | 3.3e-09 M | 7.9e-10 M | 230 nM | 
CC(C)n1cc(C(=O)C2CCN(C(=O)CCCc3cn4c(F)ccc4c(=O)[nH]3)CC2)cn1 [Compound C212, 6-Fluoro-3-{4-[4-(1-isopropyl-1H-pyrazole-4-carbonyl)-piperidin-1-yl]-4-oxo-butyl}-2H-pyrrolo[1,2-a]pyrazin-1-one] | 0.39 nM |  | 1.3e-09 M | 5600 nM | 
COc1ccc(C(=O)C2CCN(C(=O)CCCc3cn4c(F)ccc4c(=O)[nH]3)CC2)cc1 [Compound C9, 6-Fluoro-3-{4-[4-(4-methoxy-benzoyl)-piperidin-1-yl]-4-oxo-butyl}-2H-pyrrolo[1,2-a]pyrazin-1-one] | 0.2 nM | 7.2e-10 M | 1.3e-10 M |  | 
Cn1cc(C(=O)C2CCN(C(=O)CCCc3cn4cncc4c(=O)[nH]3)CC2)cn1 [Compound C207, 6-{4-[4-(1-Methylpyrazole-4-carbonyl)-1-piperidyl]-4-oxo-butyl}-7H-imidazo[1,5-a]pyrazin-8-one] | 7.1 nM | 1.1e-06 M | 2.8e-09 M |  | 
CC(C)(O)c1ccc(C(=O)C2CCN(C(=O)CCCc3nc4c(c(=O)[nH]3)COCC4)CC2)cc1 [Compound C200, 2-(4-{4-[4-(1-Hydroxy-1-methyl-ethyl)-benzoyl]-piperidin-1-yl}-4-oxo-butyl)-3,5,7,8-tetrahydro-pyrano[4,3-d]pyrimidin-4-one] | 170 nM | 3.7e-06 M | 2.2e-08 M |  | 
COc1ccc(C(=O)C2CCN(C(=O)CCCc3cn4cccc4c(=O)[nH]3)CC2)cc1 [Compound C2, 3-{4-[4-(4-Methoxy-benzoyl)-piperidin-1-yl]-4-oxo-butyl}-2H-pyrrolo[1,2-a]-pyrazin-1-one] | 0.24 nM | 5e-10 M | 1.4e-10 M |  | 
O=C(CCCc1nc2c(c(=O)[nH]1)COCC2)N1CCC(c2nnc(-c3ccccc3)o2)CC1 [Compound C196, 2-{4-Oxo-4-[4-(5-phenyl-[1,3,4]oxadiazol-2-yl)-piperidin-1-yl]-butyl}-3,5,7,8-tetrahydro-pyrano[4,3-d]pyrimidin-4-one] |  | 2e-06 M |  | 6500 nM | 5.7e-08 M
COc1ccc(C(=O)C2CCN(C(=O)CCCc3nncc4ccccc34)CC2)cc1 [Compound C250, 1-[4-(4-Methoxy-benzoyl)-piperidin-1-yl]-4-phthalazin-1-yl-butan-1-one] | 2.8 nM | 4.6e-08 M | 1.1e-09 M |  | 
CC(C)n1cc(C(=O)C2CCN(C(=O)CCCc3nc4c(cnn4C)c(=O)[nH]3)CC2)cn1 [Compound C218, 6-{4-[4-(1-Isopropyl-1H-pyrazole-4-carbonyl)-piperidin-1-yl]-4-oxo-butyl}-1-methyl-1,5-dihydro-pyrazolo[3,4-d]pyrimidin-4-one] | 2 nM | 1.4e-07 M | 8.5e-10 M |  | 
COc1ccc(C(=O)C2CCN(C(=O)CCCc3cn4cncc4c(=O)[nH]3)CC2)cc1 [Compound C10, 6-{4-[4-(4-Methoxy-benzoyl)-piperidin-1-yl]-4-oxo-butyl}-7H-imidazo[1,5-a]-pyrazin-8-one] | 0.32 nM | 6.7e-09 M | 1.3e-10 M |  | 
COc1ccc(C(=O)C2CCN(C(=O)CCCc3cn4nc(C)cc4c(=O)[nH]3)CC2)cc1 [Compound C12, 6-{4-[4-(4-Methoxy-benzoyl)-piperidin-1-yl]-4-oxo-butyl}-2-methyl-5H-pyrazolo[1,5-a]pyrazin-4-one] | 0.13 nM | 4.9e-10 M | 1.4e-10 M |  | 
COc1ccc(C(=O)C2CCN(C(=O)CCCc3nc(C(C)C)cc(=O)[nH]3)CC2)cc1 [Compound C254, 6-Isopropyl-2-{4-[4-(4-methoxy-benzoyl)-piperidin-1-yl]-4-oxo-butyl}-3H-pyrimidin-4-one trifluoroacetate] | 28 nM | 2.6e-07 M | 1.5e-08 M |  | 
Cc1ccc2c(=O)[nH]c(CCCC(=O)N3CCC(C(=O)c4cnn(C(C)C)c4)CC3)cn12 [Compound C211, 3-{4-[4-(1-Isopropyl-1H-pyrazole-4-carbonyl)-piperidin-1-yl]-4-oxo-butyl}-6-methyl-2H-pyrrolo[1,2-a]pyrazin-1-one] |  | 1.4e-08 M |  | 14000 nM | 2.8e-10 M
Cn1cc(C(=O)C2CCN(C(=O)CCCc3nn4cccc4c(=O)[nH]3)CC2)cn1 [Compound C146, 2-{4-[4-(1-Methyl-1H-pyrazole-4-carbonyl)-piperidin-1-yl]-4-oxo-butyl}-3H-pyrrolo[2,1-f][1,2,4]triazin-4-one] | 2.2 nM | 8.7e-08 M | 1.4e-09 M |  | 
CC(C)c1cc(=O)[nH]c(CCCC(=O)N2CCC(C(=O)c3cnn(C)c3)CC2)n1 [Compound C257, 4-Isopropyl-2-{4-[4-(1-methylpyrazole-4-carbonyl)-1-piperidyl]-4-oxo-butyl}-1H-pyrimidin-6-one trifluoroacetate] | 110 nM | 9.3e-06 M | 5.8e-08 M |  | 
COc1ccc(C(=O)C2CCN(C(=O)CCCc3cn4c(C)cnc4c(=O)[nH]3)CC2)cc1 [Compound C32, 6-{4-[4-(4-Methoxybenzoyl)-1-piperidyl]-4-oxo-butyl}-3-methyl-7H-imidazo[1,2-a]pyrazin-8-one] | 0.12 nM |  | 1.4e-10 M | 17000 nM | 
COc1ccc(C(=O)C2CCN(C(=O)CCCc3cn4ccnc4c(=O)[nH]3)CC2)cc1 [Compound C13, 6-{4-[4-(4-Methoxy-benzoyl)-piperidin-1-yl]-4-oxo-butyl}-7H-imidazo[1,2-a]-pyrazin-8-one] | 1.2 nM | 4.1e-07 M | 7.4e-10 M |  | 
Cc1nc(CCCC(=O)N2CCC(C(=O)c3cnn(C)c3)CC2)[nH]c(=O)c1C [Compound C242, 5,6-Dimethyl-2-{4-[4-(1-methyl-1H-pyrazole-4-carbonyl)-piperidin-1-yl]-4-oxo-butyl}-3H-pyrimidin-4-one] | 24 nM | 8.8e-07 M | 7.1e-09 M |  | 
